The test system of the assay is Fisher rats. Nature of the assay: Tele-Stereo-EEG: field potentials (spectral power) in freely moving rats. The class given is in vivo, rat. As to conditions: 4 mg i.p.

For `OC1(c2ccc(Cl)cc2)CCN(Cc2c[nH]c3ccccc23)CC1` [L-741,626], the “changes in the EEG power spectrum” value is listed as “strong decrease of spectral power mainly within the alpha2 waves”.

The record behind these values is patent US8637099B2, “Use of Vitex agnus castus extracts for preparing a medicament” (Max Zeller Sohne AG, priority 2007, dated 2014).
